Drawing on US9416115B2, “Fused heterocyclic compounds as ion channel modulators” (Gilead Sciences, Inc., priority 2013, dated 2016), this text covers inhibition for 24 compounds.

T1 sequence (Q14524 whole entry): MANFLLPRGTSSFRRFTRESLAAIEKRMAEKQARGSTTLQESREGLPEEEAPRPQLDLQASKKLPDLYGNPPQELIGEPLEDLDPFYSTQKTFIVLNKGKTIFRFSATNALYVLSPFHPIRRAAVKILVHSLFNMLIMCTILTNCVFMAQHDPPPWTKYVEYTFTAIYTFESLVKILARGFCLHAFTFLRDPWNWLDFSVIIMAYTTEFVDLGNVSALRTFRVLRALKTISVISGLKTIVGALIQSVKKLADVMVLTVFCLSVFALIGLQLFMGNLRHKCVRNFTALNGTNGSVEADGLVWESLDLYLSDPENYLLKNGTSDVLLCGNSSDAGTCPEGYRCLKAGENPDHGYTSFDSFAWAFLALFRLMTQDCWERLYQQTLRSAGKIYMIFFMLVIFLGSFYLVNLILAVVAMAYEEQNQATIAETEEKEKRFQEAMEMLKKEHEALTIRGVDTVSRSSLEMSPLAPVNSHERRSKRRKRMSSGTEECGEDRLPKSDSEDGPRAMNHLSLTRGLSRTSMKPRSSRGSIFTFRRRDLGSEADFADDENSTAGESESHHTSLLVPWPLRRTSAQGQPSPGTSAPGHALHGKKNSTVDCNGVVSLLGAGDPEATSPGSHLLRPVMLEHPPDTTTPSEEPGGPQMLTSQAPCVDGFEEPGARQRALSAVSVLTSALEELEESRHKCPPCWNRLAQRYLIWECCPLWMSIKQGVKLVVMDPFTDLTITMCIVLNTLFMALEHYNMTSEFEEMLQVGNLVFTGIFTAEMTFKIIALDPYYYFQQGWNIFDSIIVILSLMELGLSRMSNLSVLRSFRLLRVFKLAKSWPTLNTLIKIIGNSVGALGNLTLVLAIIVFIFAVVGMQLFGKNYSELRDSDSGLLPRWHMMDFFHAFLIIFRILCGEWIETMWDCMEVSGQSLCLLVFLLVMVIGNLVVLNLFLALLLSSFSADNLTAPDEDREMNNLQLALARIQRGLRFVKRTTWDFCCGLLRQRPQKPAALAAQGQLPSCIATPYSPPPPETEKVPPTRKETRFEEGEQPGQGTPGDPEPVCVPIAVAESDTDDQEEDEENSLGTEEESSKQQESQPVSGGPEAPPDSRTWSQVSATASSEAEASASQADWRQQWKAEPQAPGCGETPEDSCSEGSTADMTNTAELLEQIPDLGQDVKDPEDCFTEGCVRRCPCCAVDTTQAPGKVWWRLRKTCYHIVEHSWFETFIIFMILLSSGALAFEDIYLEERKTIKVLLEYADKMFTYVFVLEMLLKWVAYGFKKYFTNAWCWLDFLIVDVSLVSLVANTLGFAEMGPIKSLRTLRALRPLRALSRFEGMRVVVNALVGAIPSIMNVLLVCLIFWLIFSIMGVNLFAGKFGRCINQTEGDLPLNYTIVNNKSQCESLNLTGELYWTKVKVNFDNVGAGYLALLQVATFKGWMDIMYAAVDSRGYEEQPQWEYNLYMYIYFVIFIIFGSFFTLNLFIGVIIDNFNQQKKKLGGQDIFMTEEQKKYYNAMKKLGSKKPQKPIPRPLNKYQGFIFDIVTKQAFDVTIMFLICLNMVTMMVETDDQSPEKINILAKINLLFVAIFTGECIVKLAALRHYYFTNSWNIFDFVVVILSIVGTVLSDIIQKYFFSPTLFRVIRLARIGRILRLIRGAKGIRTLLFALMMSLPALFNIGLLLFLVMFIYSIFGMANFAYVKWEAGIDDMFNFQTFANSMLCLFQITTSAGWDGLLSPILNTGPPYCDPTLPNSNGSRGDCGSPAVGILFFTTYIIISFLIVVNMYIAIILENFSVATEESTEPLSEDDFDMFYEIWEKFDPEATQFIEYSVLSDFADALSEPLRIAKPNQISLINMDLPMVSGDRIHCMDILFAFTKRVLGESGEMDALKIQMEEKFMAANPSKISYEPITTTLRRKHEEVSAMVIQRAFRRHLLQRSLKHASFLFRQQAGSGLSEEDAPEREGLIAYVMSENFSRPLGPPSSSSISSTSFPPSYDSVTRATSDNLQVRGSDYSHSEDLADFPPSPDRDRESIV

One assay addresses T1, wild-type human cardiac sodium channel, hNav1.5 (Homo sapiens, UniProt Q14524). Kind of assay: Peak INa screening assay (tonic block and use-dependent block). It counts as cell-based. Particulars: tonic block of Peak INa, 0.1 Hz, holding -100 mV, read-out: Peak TB 3 uM. As to the method: (§1) The cardiac late sodium current (Late INa) and peak sodium current (Peak INa) assays are performed on an automated electrophysiology platform, QPatch 16X or QPatch HT (Sophion Bioscience, Copenhagen, Denmark) using the whole cell patch clamp technique to measure currents through the cell membrane. The assay uses an HEK293 (human embryonic kidney) cell line heterologously expressing the wild-type human cardiac sodium channel, hNav1.5, purchased from Millipore (Billerica, Mass.). No beta subunits were coexpressed with the Na channel alpha subunit. Cells are maintained with standard tissue culture procedures and stable channel expression is maintained with 400 μg/mL Geneticin in the culture medium. Experiments are carried out at 23-25° C.
(§2) For both the Late INa and Peak INa assays, series resistance compensation is set to 100% and series resistance and whole-cell compensation are performed automatically. Currents are digitized at 25 kHz and low-pass filtered at 5 kHz and stored in the Sophion Bioscience Oracle database (Sophion Bioscience, Copenhagen, Denmark). Analysis is performed using QPatch Assay software and data are compiled in Excel 2010 (Microsoft, Seattle, Wash., U.S.A.).
(§3) Compound stocks are routinely made by the Gilead Sample Bank in vials to 10 mM in dimethyl sulfoxide (DMSO). In some cases, when compounds are not soluble in DMSO, they are made in 100% ethanol. Stocks are sonicated as necessary. The extracellular solution for screening Late INa is composed of: 140 mM NaCl, 4 mM KCl, 1.8 mM CaCl2, 1 mM MgCl2, 10 mM HEPES and 10 mM Dextrose with pH adjusted to 7.35 using NaOH. The intracellular solution contains: 105 mM CsF, 20 mM CsCl, 10NaF, 2 mM EGTA, 10 mM HEPES and 10 mM Dextrose with pH adjusted to 7.35 with CsOH. Compounds are diluted in extracellular solution using a MicroLab Nimbus (Hamilton Robotics, Reno, Nev.) to between 0.3 and 3 μM in glass vials and transferred to glass well plates before robotic addition to the cells. The 0 mM Na extracellular solution (0Na-ECF) used at the end of each experiment for the Late INa and Peak INa assays to measure baseline current contains: 140 Choline-Cl; 4 mM KCl, 1.8 mM CaCl2; 1 mM MgCl2; 10 mM HEPES and 10 mM Dextrose with pH was adjusted to 7.35 with CsOH.
Compounds were evaluated for their effect Nav1.5 Peak INa. It is contemplated that the compounds of Formula I avoid significant block of peak INa. Since the peak INa in the cells used herein can be very large, introducing artifacts in the recording, the concentration of Na^+ in the bath can be reduced to 40 mM by isosmotic replacement of Na^+ with Choline (see below).
Tonic Block (TB) of Peak INa was measured using a voltage step to −20 mV from a holding potential of −100 mV at a low stimulation frequency of 0.1 Hz. Use-Dependent Block (UDB) of Peak INa was measured during pulse number 50 of a pulse train (−20 mV, 20 ms, 50 pulses, 3 Hz) from a holding potential of −100 mV.
The extracellular solution for screening Peak INa is composed of: 40 mM NaCl, 100 mM Choline-Cl, 4 mM KCl, 1.8 mM CaCl2, 1 mM MgCl2 10 mM HEPES and 10 mM Dextrose with pH adjusted to 7.35 using NaOH. The intracellular solution used for the Peak INa assay is the same as outlined for the Late INa assay (see above).
After establishing the whole cell recording configuration, channels were stimulated to open with low frequency (0.1 Hz) so that the recording can be monitored and the extent to which the recording has stabilized can be assessed.
The test compound is then applied at 1 or 3 μM and was added 2 times at 60 second intervals. After the second compound addition, a 200 second wait period was imposed to allow for equilibration. Voltage protocols for TB and UDB are were performed in the absence and presence of compound and TB and UDB are calculated with respect to the compound free condition. Both TB and UDB were analyzed by incorporating rundown correction for the peak INa.
For `Fc1cc(OC(F)(F)F)ccc1-c1ccc2onc(OCc3ncccn3)c2c1` [Example 2, 5-(2-fluoro-4-(trifluoromethoxy)phenyl)-3-(pyrimidin-2-ylmethoxy)benzo[d]isoxazole], the inhibition at 3 µM turned out to be 66.1%.

Staying with this assay, now noted: use-dependent block of Peak INa, 3 Hz, pulse 50, read-out: Peak UDB 3 Hz 3 uM.
As for `Fc1cc(OC(F)(F)F)ccc1-c1ccc2onc(OCc3ncccn3)c2c1` [Example 2, 5-(2-fluoro-4-(trifluoromethoxy)phenyl)-3-(pyrimidin-2-ylmethoxy)benzo[d]isoxazole], the inhibition at 3 µM turned out to be 27.9%.

Another assay concerns the target T1, wild-type human cardiac sodium channel, hNav1.5. The experiment in a line: Late INa screening assay (QPatch whole cell patch clamp, Tefluthrin-induced late current). Format: cell-based. Particulars: 1 uM; HEK293 hNav1.5; percent block of late INa. As for the experimental part:
as §1, §2, §3
For the Late INa assay, sodium channels are activated every 10 seconds (0.1 Hz) by depolarizing the cell membrane to −20 mV for 250 milliseconds (ms) from a holding potential of −120 mV.
Compounds were tested to determine their activity in blocking the late sodium current. Late INa was generated by adding 10 μM Tefluthrin (pyrethroid) to the extracellular solution. For the purposes of the screening, Late INa is defined as the mean current between […] during the voltage step to −20 mV. After establishing the whole cell recording configuration, Late INa activator is added to each well 4 times over a 15 minute period so that the late component of the Na current reaches a stable value. Compounds were then added (typically at 0.3 or 1 μM), in the presence of the Late Na^+ activator, with 3 additions over the course of 5 minutes. Measurements were made at the end of exposure to the third compound addition and values were normalized to the current level when all Na^+ was removed from the extracellular solution after two additions of 0Na-ECF.
Results are reported as percent block of late INa and results were analyzed by incorporating rundown correction for the Late INa.
The compound `FC(F)(F)Oc1ccc(-c2ccc3onc(OCc4c[nH]nn4)c3c2)cc1` [Example 83, 3-((1H-1,2,3-triazol-4-yl)methoxy)-5-(4-(trifluoromethoxy)phenyl)benzo[d]isoxazole] returned an inhibition at 1 µM of 23.7%.
On the same count and under the same terms, the figure for `c1cnc(COc2noc3ccc(-c4ccc(C5CC5)nc4)cc23)nc1` [Example 20, 5-(6-cyclopropylpyridin-3-yl)-3-(pyrimidin-2-ylmethoxy)benzo[d]isoxazole] is 28.8%.
Same read-out and setting: the figure for `COc1ccnc(COc2noc3c(C)cc(-c4ccc(OC(F)(F)F)cc4)cc23)n1` [Example 90, 3-((4-methoxypyrimidin-2-yl)methoxy)-7-methyl-5-(4-(trifluoromethoxy)phenyl)benzo[d]isoxazole] is 20.9%; for `Fc1cc(-c2ccc(OC(F)(F)F)cc2)cc2c(OCCn3cncn3)noc12` [Example 84, 3-(2-(1H-1,2,4-triazol-1-yl)ethoxy)-7-fluoro-5-(4-(trifluoromethoxy)phenyl)benzo[d]isoxazole] it is 23.6%; for `O=C1CC[C@@H](COc2noc3ccc(-c4ccc(OC(F)(F)F)cc4)cc23)N1` [Example 62, (S)-5-(((5-(4-(trifluoromethoxy)phenyl)benzo[d]isoxazol-3-yl)oxy)methyl)pyrrolidin-2-one] it is 28.4%.
Same read-out and setting: the figure for `Cc1cc(C)n(CCOc2noc3ccc(-c4ccc(OC(F)(F)F)cc4)cc23)n1` [Example 69, 3-(2-(3,5-dimethyl-1H-pyrazol-1-yl)ethoxy)-5-(4-(trifluoromethoxy)phenyl)benzo[d]isoxazole] is 29.6%; for `N#CCC1(COc2noc3ccc(-c4ccc(OC(F)(F)F)cc4)cc23)CC1` [Example 54, 2-(1-(((5-(4-(trifluoromethoxy)phenyl)benzo[d]isoxazol-3-yl)oxy)methyl)cyclopropyl)acetonitrile] it is 29.2%.
Take `Cc1nccn1-c1noc2ccc(-c3ccc(OC(F)(F)F)cc3)cc12` [Example 138, 3-(2-methyl-1H-imidazol-1-yl)-5-(4-(trifluoromethoxy)phenyl)benzo[d]isoxazole]: the inhibition at 1 µM came to 29.8%.
In the case of `Cc1cc(-c2cccc(OC(F)(F)F)c2)cc2c(OCc3ncccn3)noc12` [Example 19, 7-methyl-3-(pyrimidin-2-ylmethoxy)-5-(3-(trifluoromethoxy)phenyl)benzo[d]isoxazole], the inhibition at 1 µM was found to be 27.5%.
The same measure, in the same setting: in the case of `Cc1cc(OC(F)(F)F)ccc1-c1cc2c(OCc3ncccn3)noc2cc1F` [Example 34, 6-fluoro-5-(2-methyl-4-(trifluoromethoxy)phenyl)-3-(pyrimidin-2-ylmethoxy)benzo[d]isoxazole] it was 21%.
Same read-out and setting: the figure for `FC(F)(F)Oc1ccc(-c2ccc3onc(OCc4cc5ccccc5cn4)c3c2)cc1` [Example 82, 3-(isoquinolin-3-ylmethoxy)-5-(4-(trifluoromethoxy)phenyl)benzo[d]isoxazole] is 28.1%.
Same read-out and setting: in the case of `Cc1cccc(COc2noc3c(C)cc(-c4ccc(OC(F)(F)F)cc4)cc23)n1` [Example 106, 7-methyl-3-((6-methylpyridin-2-yl)methoxy)-5-(4-(trifluoromethoxy)phenyl)benzo[d]isoxazole] it was 28.3%.
`Cc1nc(COc2noc3ccc(-c4ccc(OC(F)(F)F)cc4)cc23)c(C)o1` [Example 52, 3-((2,5-dimethyloxazol-4-yl)methoxy)-5-(4-(trifluoromethoxy)phenyl)benzo[d]isoxazole] yielded an inhibition at 1 µM of 24.3%.
On to `FC(F)(F)Oc1ccc(-c2ccc3onc(OCc4nccc(N5CCOCC5)n4)c3c2)cc1` [Example 70, 3-((4-morpholinopyrimidin-2-yl)methoxy)-5-(4-(trifluoromethoxy)phenyl)benzo[d]isoxazole], for which the inhibition at 1 µM came to 25.5%.
As to `O=C1CC[C@H](CNc2noc3ccc(-c4ccc(OC(F)(F)F)cc4)cc23)N1` [Example 134, (R)-5-(((5-(4-(trifluoromethoxy)phenyl)benzo[d]isoxazol-3-yl)amino)methyl)pyrrolidin-2-one], the inhibition at 1 µM came to 21.1%.
On to `CC(C)Nc1noc2ccc(-c3ccc(OC(F)(F)F)cc3)cc12` [Example 131, N-isopropyl-5-(4-(trifluoromethoxy)phenyl)benzo[d]isoxazol-3-amine], for which the inhibition at 1 µM is 24.8%.
`FC(F)(F)Oc1ccc(-c2ccc3onc(OCc4cnn(-c5ccccn5)c4)c3c2)cc1` [Example 65, 3-((1-(pyridin-2-yl)-1H-pyrazol-4-yl)methoxy)-5-(4-(trifluoromethoxy)phenyl)benzo[d]isoxazole] returned an inhibition at 1 µM of 27%.
On to `COc1cc2onc(OCc3ncccn3)c2cc1-c1ccc(OC(F)(F)F)cc1` [Example 11, 6-methoxy-3-(pyrimidin-2-ylmethoxy)-5-(4-(trifluoromethoxy)phenyl)benzo[d]isoxazole], for which the inhibition at 1 µM stood at 30%.
Consider `Cn1cnc(COc2noc3ccc(-c4ccc(OC(F)(F)F)cc4)cc23)c1` [Example 43, 3-((1-methyl-1H-imidazol-4-yl)methoxy)-5-(4-(trifluoromethoxy)phenyl)benzo[d]isoxazole], for which the inhibition at 1 µM came to 27.1%.
Turning to `O=S1(=O)CCN(CCOc2noc3ccc(-c4ccc(OC(F)(F)F)cc4)cc23)CC1` [Example 85, 4-(2-((5-(4-(trifluoromethoxy)phenyl)benzo[d]isoxazol-3-yl)oxy)ethyl)thiomorpholine 1,1-dioxide], the inhibition at 1 µM was found to be 22.5%.
On the same count and under the same terms, in the case of `FC(F)(F)Oc1ccc(-c2ccc3onc(OCc4nccc(C(F)(F)F)n4)c3c2)cc1` [Example 86, 5-(4-(trifluoromethoxy)phenyl)-3-((4-(trifluoromethyl)pyrimidin-2-yl)methoxy)benzo[d]isoxazole] it was 21.9%.
With `Cc1cc(-c2cc3c(OCc4ncccn4)noc3cc2F)ccc1OC(F)(F)F` [Example 32, 6-fluoro-5-(3-methyl-4-(trifluoromethoxy)phenyl)-3-(pyrimidin-2-ylmethoxy)benzo[d]isoxazole], the inhibition at 1 µM was found to be 28.8%.
The same measure, in the same setting: the figure for `Fc1cc(OC(F)(F)F)ccc1-c1ccc2onc(OCc3ncccn3)c2c1` [Example 2, 5-(2-fluoro-4-(trifluoromethoxy)phenyl)-3-(pyrimidin-2-ylmethoxy)benzo[d]isoxazole] is 54.6%; for `FC(F)(F)Oc1ccc(-c2ccc3onc(OCCc4ncc[nH]4)c3c2)cc1` [Example 66, 3-(2-(1H-imidazol-2-yl)ethoxy)-5-(4-(trifluoromethoxy)phenyl)benzo[d]isoxazole] it is 21.9%.
